Bridge positions count the residues as written; N and C are the ends. Square brackets hold non-standard residues; d marks the D form. Peptide text beside a SMILES is read from it. * marks the point of attachment. Phe(4-NH2) = Nc1ccc(C[C@H](N)C(=O)O)cc1; hSer = N[C@@H](CCO)C(=O)O; Octanoyl = CCCCCCCC(=O)*; Dab = NCC[C@H](N)C(=O)O
Tests used:
[1] = test system: K. pneumoniae CI 138-16357-20362, PmxR; test: microbe, parasite or virus in culture; format: cell-based, Klebsiella pneumoniae; details: carbapenem & polymyxin resistant clinical isolate; MHB, 5 × 10^5 CFU/mL, 18 h at 37 °C
[2] = test system: K. pneumoniae CI Koprana 100650661:1, PmxR; test: microbe, parasite or virus in culture; format: cell-based, Klebsiella pneumoniae; details: carbapenem & polymyxin resistant clinical isolate; MHB, 5 × 10^5 CFU/mL, 18 h at 37 °C
[3] = test system: K. pneumoniae CI 138-16357-20362, PmxR; details: MIC K. pneumoniae CI 138-16357-20362, PmxR (µg/mL)
[4] = test system: P. aeruginosa PA9704, PmxR; details: MIC P. aeruginosa PA9704, PmxR (µg/mL)
[5] = test system: A. baumannii CI Ptyela 100734512:2, PmxR; details: MIC A. baumannii CI Ptyela 100734512:2, PmxR (µg/mL)
[6] = test system: P. aeruginosa FADDI-PA070, PmxR; details: MIC P. aeruginosa FADDI-PA070, PmxR (µg/mL)
[7] = test system: S. aureus ATCC 25923, MSSA; details: MIC S. aureus ATCC 25923, MSSA (µg/mL)
[8] = test system: K. pneumoniae CI Koprana 100650661:1, PmxR; details: MIC K. pneumoniae CI Koprana 100650661:1, PmxR (µg/mL)
[9] = test system: panel of predominantly G-ve bacteria
HepG2 = details: CC50 HepG2 (µM)
K. pneumoniae ATCC 13883 = details: MIC K. pneumoniae ATCC 13883 (µg/mL)
[10] = test system: K. pneumoniae ATTC BAA-2146, NDM-1 pos; format: cell-based, Klebsiella pneumoniae; details: MHB, 5 × 10^5 CFU/mL, read visually after 18 h at 37 °C
Experimental: Bacteria were either obtained from American Type Culture Collection (ATCC; Manassas, VA, USA) or independent academic clinical isolate collections, as listed in Table S2. Bacteria were cultured in nutrient broth (NB; Bacto Laboratories, catalog no. 234000) or Muller Hinton broth (MHB; Bacto Laboratories, catalog no. 211443) at 37 °C overnight with shaking (∼180 rpm). A sample of each culture was then diluted 50-fold in fresh MHB and incubated at 37 °C for 1.5–3 h with shaking (∼180 rpm). Compound stock solutions were prepared as 0.64 or 2.56 mg/mL in water. The compounds, at twice the final desired concentration, were serially diluted 2-fold across the wells of 96-well plates (Polystyrene, Corning, catalogue No. 3370). Mid log phase bacterial cultures (after 1.5–3 h incubation) were diluted to a final concentration of 5 × 10^5 colony forming units (CFU)/mL, and 50 μL was added to each well giving a final compound concentration range of 32 μg/mL to 0.015 μg/mL (128–0.06 μg/mL for colistin and polymyxin B against the polymyxin resistant clinical isolates). MICs were determined visually after 18 h of incubation at 37 °C, with the MIC defined as the lowest compound concentration at which no bacterial growth was visible.
Table S2. Bacterial strains used for Minimum Inhibitory Concentration (MIC) […]
Organism Strain Strain description Strain Source
Escherichia coli ATCC 25922 FDA strain Seattle 1946 ATCC
Klebsiella pneumoniae ATCC 13883 Control strain ATCC
Klebsiella pneumoniae ATCC 700603 Multi-drug resistant ATCC
Klebsiella pneumoniae BAA-2146 Metallo-beta-lactamase- ATCC
Acinetobacter baumannii ATCC 19606 Type strain ATCC
Pseudomonas aeruginosa ATCC 27853 Type strain ATCC
Pseudomonas aeruginosa FADDI-PA070 Clinical isolate, Nation and Li labs, polymyxin resistant Monash University
Clinical isolate, Wang Hengzhuang, Pseudomonas aeruginosa PA9704 polymyxin resistant University Hospital of […]
Ptyela Clinical isolate, Ilias Karaiskos and Acinetobacter baumannii Carbapenem & Helen Giamarellou
Clinical isolate, Medicine, Hygeia
Klebsiella pneumoniae Koprana Carbapenem, & General Hospital, […]
Clinical isolate, (Instituto Dante […]
polymyxin resistant Cardiologia, São […]

[11] = test system: K. pneumoniae ATTC BAA-2146, NDM-1 pos; details: MIC K. pneumoniae ATTC BAA-2146, NDM-1 pos (µg/mL)
P. aeruginosa ATCC 27853 = details: MIC P. aeruginosa ATCC 27853 (µg/mL)
[12] = test system: K. pneumoniae ATCC 700603, MDR; details: MIC K. pneumoniae ATCC 700603, MDR(µg/mL)
E. coli ATCC 25922 = details: MIC E. coli ATCC 25922 (µg/mL)
A. baumannii ATCC 19606 = details: MIC A. baumannii ATCC 19606 (µg/mL)

SMILES | MIC K. pneumoniae CI 138-16357-20362, PmxR [1] [µg/mL] | MIC K. pneumoniae CI Koprana 100650661:1, PmxR [2] [µg/mL] | MIC [3] [µg/mL] | MIC [4] [µg/mL] | MIC [5] [µg/mL] | MIC [6] [µg/mL] | MIC [7] [µg/mL] | MIC [8] [µg/mL] | MIC for most strains [9] [µg/mL] | CC50 (HepG2) [µM] | MIC (K. pneumoniae ATCC 13883) [µg/mL] | MIC K. pneumoniae ATTC BAA-2146, NDM-1 pos [10] [µg/mL] | MIC [11] [µg/mL] | MIC (P. aeruginosa ATCC 27853) [µg/mL] | MIC [12] [µg/mL] | MIC (E. coli ATCC 25922) [µg/mL] | MIC (A. baumannii ATCC 19606) [µg/mL]
CCCCCCCC(=O)N[C@@H](CCN)C(=O)N[C@H](C(=O)N[C@@H](CCN)C(=O)N[C@H]1CCNC(=O)[C@H]([C@@H](C)O)NC(=O)[C@H](CCN)NC(=O)[C@H](CCNC(=O)[C@@H](N)CCC(=O)O)NC(=O)[C@H](CC(C)C)NC(=O)[C@@H](Cc2ccccc2)NC(=O)[C@H](CCN)NC1=O)[C@@H](C)O [Compound 23] (Octanoyl-[Dab]T[Dab][Dab][Dab][dF]L[Dab](Glu)[Dab]T; lactam 4-C) | >32 | >32 | > 32 | > 32 | > 32 | > 32 | > 32 | > 32 | 1 to 8 | > 300 |  |  |  |  |  |  | 
CCCCCCCC(=O)N[C@@H](CCN)C(=O)N[C@H](C(=O)N[C@@H](CCN)C(=O)N[C@H]1CCNC(=O)[C@H]([C@@H](C)O)NC(=O)[C@H](CCN)NC(=O)[C@H](CCO)NC(=O)[C@H](CC(C)C)NC(=O)[C@@H](Cc2ccccc2)NC(=O)[C@H](CCN)NC1=O)[C@@H](C)O [Compound 24] (Octanoyl-[Dab]T[Dab][Dab][Dab][dF]L[hSer][Dab]T; lactam 4-C) | >32 | >32 | > 32 | > 32 | > 32 | > 32 | > 32 | > 32 | 1 to 8 | > 300 | > 32 |  |  |  |  |  | 
CCCCCCCC(=O)N[C@@H](CCN)C(=O)N[C@H](C(=O)N[C@@H](CCN)C(=O)N[C@H]1CCNC(=O)[C@H]([C@@H](C)O)NC(=O)[C@H](CCN)NC(=O)[C@H](CCN)NC(=O)[C@H](CC(C)C)NC(=O)[C@@H](Cc2ccccc2)NC(=O)[C@H](Cc2ccc(N)cc2)NC1=O)[C@@H](C)O [Compound 34] (Octanoyl-[Dab]T[Dab][Dab][Phe(4-NH2)][dF]L[Dab][Dab]T; lactam 4-C) | >32 | >32 | > 32 | > 32 | > 32 | > 32 | > 32 | > 32 |  | > 300 | > 32 | >32 | > 32 | > 32 | > 32 | > 32 | > 32

— publication PMC4774972, “Activity and Predicted Nephrotoxicity of Synthetic Antibiotics Based on Polymyxin B” (Journal of Medicinal Chemistry, 2016)
